These results are taken from patent publication US9434711B2 (Janssen Pharmaceutica, NV, priority 2007, dated 2016).

What is called IC50 is the concentration at which inhibition is half-maximal.

This assay addresses canine TRPM8 (Canis lupus familiaris, UniProt Q1A7N1). Description: In Vitro Canine TRPM8 Functional Assay (Ca2+ fluorescence, icilin activation). It counts as cell-based. The note with it: for IC50: read-out: IC50; for inhibition at 0.2 µM: read-out: % Inh @ 0.2; for inhibition at 0.5 µM: compound at 0.5 μM, read-out: % Inh @ 0.5. Summed up:
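Eight-point dose-response curves in quadruplicate gave EC50 or IC50 values from a Ca2+-sensitive dye assay in HEK293 cells stably carrying canine TRPM8. Icilin, dosed near its 80% maximal level, followed a 5 min compound exposure.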

Setting [1] is: HEK293 cells stably expressing canine TRPM8, icilin activation, eight-point dose-response.
Setting [2] is: compound at 0.2 μM, canine TRPM8, icilin activation.
Where [3] appears, read: canine TRPM8, icilin activation.
[4] abbreviates: 0.2 μM compound, HEK293 cells stably expressing canine TRPM8, icilin activation.
Where [5] appears, read: HEK293 cells stably expressing canine TRPM8, icilin activation, average of two or more determinations.

Read-outs that look alike come from different tables or passages of the source.

Chain of canine TRPM8 (Q1A7N1 1-1104): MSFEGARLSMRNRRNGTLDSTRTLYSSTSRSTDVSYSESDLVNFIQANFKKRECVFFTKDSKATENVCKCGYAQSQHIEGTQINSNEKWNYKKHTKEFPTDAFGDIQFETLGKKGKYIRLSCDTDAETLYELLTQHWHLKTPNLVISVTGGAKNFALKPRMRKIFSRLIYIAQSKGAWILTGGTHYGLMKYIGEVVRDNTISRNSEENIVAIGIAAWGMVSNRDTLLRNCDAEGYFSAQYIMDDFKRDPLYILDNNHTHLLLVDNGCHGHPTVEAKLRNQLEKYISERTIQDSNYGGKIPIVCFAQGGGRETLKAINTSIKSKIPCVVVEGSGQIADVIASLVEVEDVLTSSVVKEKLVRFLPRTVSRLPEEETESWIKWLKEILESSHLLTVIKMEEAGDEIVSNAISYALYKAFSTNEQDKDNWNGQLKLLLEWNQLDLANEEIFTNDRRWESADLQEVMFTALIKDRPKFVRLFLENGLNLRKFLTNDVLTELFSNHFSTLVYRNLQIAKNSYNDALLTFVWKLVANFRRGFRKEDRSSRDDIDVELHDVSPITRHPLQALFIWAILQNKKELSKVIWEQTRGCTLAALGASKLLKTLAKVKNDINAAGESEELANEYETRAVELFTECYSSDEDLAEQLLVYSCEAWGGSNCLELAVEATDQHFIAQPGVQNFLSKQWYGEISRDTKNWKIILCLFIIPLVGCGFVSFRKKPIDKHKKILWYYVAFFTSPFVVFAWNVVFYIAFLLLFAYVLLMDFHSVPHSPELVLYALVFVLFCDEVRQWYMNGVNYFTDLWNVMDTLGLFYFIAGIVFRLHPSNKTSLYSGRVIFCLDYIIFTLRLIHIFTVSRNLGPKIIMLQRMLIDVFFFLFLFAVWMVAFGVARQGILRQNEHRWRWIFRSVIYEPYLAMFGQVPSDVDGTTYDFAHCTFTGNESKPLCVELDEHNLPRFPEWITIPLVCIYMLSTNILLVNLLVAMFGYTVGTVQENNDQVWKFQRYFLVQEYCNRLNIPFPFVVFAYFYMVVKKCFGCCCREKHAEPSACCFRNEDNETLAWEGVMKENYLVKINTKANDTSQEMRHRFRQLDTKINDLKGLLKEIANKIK

With `CS(=O)(=O)Nc1ccc(S(=O)(=O)N(CCC2CC2)c2sc3ccccc3c2Cl)cc1` [Compound 716, N-(3-Chloro-benzo[b]thiophen-2-yl)-N-(2-cyclopropyl-ethyl)-4-methanesulfonylamino-benzenesulfonamide], under setting [1], the IC50 came out at 9 nM. Further, the inhibition at 0.2 µM under setting [2] was determined as 101%.

For `CCCCN(c1sc2ccccc2c1OC)S(=O)(=O)c1ccc(C(=O)O)cc1` [Compound 423, N-(Butyl)-N-(3-methoxy-benzo[b]thiophen-2-yl)-4-carboxy-benzenesulfonamide], the IC50 under setting [1] was determined as 7 nM. Moreover, the inhibition at 0.2 µM under setting [2] worked out at 93%.

Consider `CCS(=O)(=O)N(Cc1ccc(F)c(F)c1)c1cc2ccccc2s1` [Compound 35, N-(Benzo[b]thiophen-2-yl)-N-(3,4-difluoro-benzyl)-ethanesulfonamide], for which, under setting [1], the IC50 was determined as 60.8 nM. Further, the inhibition at 0.5 µM under setting [3] was found to be 100%.

For the compound `Cc1c(N(Cc2ccc(F)c(C(F)(F)F)c2)S(=O)(=O)c2ccc3c(c2)OCCN3C)sc2ccccc12` [Compound 68, N-(4-Fluoro-3-trifluoromethyl-benzyl)-N-(3-methyl-benzo[b]thiophen-2-yl)-4-methyl-3,4-dihydro-2H-benzo[1,4]oxazine-7-sulfonamide], the IC50 under setting [1] is 2 nM. Also, the inhibition at 0.2 µM under setting [2] is 99%.

Turning to `O=S(=O)(c1cccnc1Cl)N(Cc1ccc(F)c(C(F)(F)F)c1)c1sc2ccccc2c1Cl` [Compound 321, N-(3-Chloro-benzo[b]thiophen-2-yl)-N-(4-fluoro-3-trifluoromethyl-benzyl)-2-chloro-pyridin-3-ylsulfonamide], the IC50 under setting [1] stood at 70 nM. The inhibition at 0.2 µM under setting [2] was 81%.

For the compound “N-(Benzo[b]thiophen-2-yl)-N-(3,3,3-trifluoro-propyl)-4-(5-oxo-4,5-dihydro-[1,2,4]oxadiazol-3-yl)-benzenesulfonamide [Compound 597]”, under setting [2], the “% Inh @ 0.2 (μM)” value was found to be 25%.

For `CC(C)(O)c1c(N(CCCF)S(=O)(=O)c2ccccc2)sc2ccccc12` [Compound 830, N-(3-Fluoropropyl)-N-[3-(1-hydroxy-1-methyl-ethyl)-benzo[b]thiophen-2-yl]-benzenesulfonamide], the inhibition at 0.2 µM under setting [4] stood at 102%. Under setting [5], the 50% inhibitory concentration (IC50) was 15 nM.

On to `Cc1c(N(Cc2ccc(F)c(C(F)(F)F)c2)S(=O)(=O)CCC(=O)O)sc2ccccc12` [Compound 510, N-(4-Fluoro-3-trifluoromethyl-benzyl)-N-(3-methyl-benzo[b]thiophen-2-yl)-2-carboxy-ethanesulfonamide], for which the concentration for half-maximal inhibition (IC50) under setting [1] came to 11 nM. Further, the inhibition at 0.2 µM under setting [2] came out at 102%.

As for `O=[N+]([O-])c1cccc(CN(c2cc3ccccc3s2)S(=O)(=O)c2ccccc2)c1` [Compound 51, N-(Benzo[b]thiophen-2-yl)-N-(3-nitro-benzyl)-benzenesulfonamide], under setting [1], the IC50 came out at 78 nM. In addition, the inhibition at 0.5 µM under setting [3] turned out to be 98%.

Turning to `Cc1c(N(Cc2ccc(F)c(F)c2)S(=O)(=O)c2cccnc2)sc2ccccc12` [Compound 12, N-(3,4-Difluoro-benzyl)-N-(3-methyl-benzo[b]thiophen-2-yl)-pyridine-3-sulfonamide], the half-maximal inhibitory concentration (IC50) under setting [1] stood at 6 nM. The inhibition at 0.5 µM under setting [3] worked out at 97%.

Consider `CCCCN(c1sc2ccccc2c1C=O)S(=O)(=O)c1ccc(C(=O)OC)cc1` [Compound 419, N-(Butyl)-N-(3-formyl-benzo[b]thiophene-2-yl)-4-carbomethoxy-benzenesulfonamide], for which the IC50 under setting [1] was determined as 345 nM. The inhibition at 0.2 µM under setting [2] came out at 74%.

On to `Cc1c(N(Cc2ccc(F)c(C(F)(F)F)c2)S(=O)(=O)CCCC(C)(C)O)sc2ccccc12` [Compound 759, N-(4-Fluoro-3-trifluoromethyl-benzyl)-N-(3-methyl-benzo[b]thiophen-2-yl)-4-hydroxy-4-methyl-pentane-1-sulfonamide], for which, under setting [1], the IC50 amounted to 18.3 nM. Besides, under setting [2], the inhibition at 0.2 µM is 101%.

Regarding `O=C(O)c1cccc(S(=O)(=O)N(Cc2ccc(F)c(C(F)(F)F)c2)c2sc3ccccc3c2Cl)c1` [Compound 307, N-(3-Chloro-benzo[b]thiophen-2-yl)-N-(4-fluoro-3-trifluoromethyl-benzyl)-3-carboxy-benzenesulfonamide], the IC50 under setting [1] was found to be 15.1 nM. Also, under setting [2], the inhibition at 0.2 µM worked out at 101%.

Regarding `COc1cccc2cc(N(Cc3ccc(F)c(F)c3)S(=O)(=O)c3ccccc3)sc12` [Compound 142, N-(3,4-Difluoro-benzyl)-N-(7-methoxy-benzo[b]thiophen-2-yl)-benzenesulfonamide], the inhibition at 0.5 µM under setting [3] worked out at 60%.

As to `COC(=O)[C@@H](C)CN(c1sc2ccccc2c1Br)S(=O)(=O)c1ccccc1` [Compound 244, N-(3-Bromo-benzo[b]thiophen-2-yl)-N-[2(S)-methyl-2-carbomethoxy-ethyl]-benzenesulfonamide], under setting [2], the inhibition at 0.2 µM was 100%.

`CC(=O)Nc1ccc(S(=O)(=O)N(Cc2ccc(F)c(C(F)(F)F)c2)c2sc3ccccc3c2C)cc1Cl` [Compound 336, N-(3-Methyl-benzo[b]thiophen-2-yl)-N-(4-fluoro-3-trifluoromethyl-benzyl)-(3-chloro-4-acetamide)-benzenesulfonamide]: the IC50 under setting [1] was 15 nM. For the same compound, under setting [2], the “% Inh @ 0.2 (μM)” value was 101%.

On to `Cc1nc(C)c(S(=O)(=O)N(Cc2ccc(F)c(C(F)(F)F)c2)c2sc3ccccc3c2C)s1` [Compound 75, N-(4-Fluoro-3-trifluoromethyl-benzyl)-N-(3-methyl-benzo[b]thiophen-2-yl)-2,4-dimethyl-thiazole-5-sulfonamide], for which the IC50 under setting [1] came out at 18 nM. Also, the inhibition at 0.2 µM under setting [2] was 98%.

With `COc1ccc(S(=O)(=O)N(Cc2ccc(F)c(C(F)(F)F)c2)c2sc3ccccc3c2C)c2cccnc12` [Compound 355], the half-maximal inhibitory concentration (IC50) under setting [1] was determined as 29.6 nM. In addition, the “% Inh @ 0.2 (μM)” value under setting [2] came to 92%.

Take `CCCCN(c1sc2ccccc2c1C(C)(C)O)S(=O)(=O)c1ccc(Br)cc1` [Compound 506, N-(Butyl)-N-(3-(1-hydroxy-1-methyl-ethyl)-benzo[b]thiophen-2-yl)-4-bromo-benzenesulfonamide]: under setting [1], the IC50 amounted to 31 nM. The inhibition at 0.2 µM under setting [2] was determined as 100%.

Regarding `Cc1c(N(CCC2CC2)S(=O)(=O)CC(F)(F)F)sc2ccccc12` [Compound 670, N-(2-Cyclopropyl-ethyl)-N-(3-methyl-benzo[b]thiophen-2-yl)-2,2,2-trifluoro-ethanesulfonamide], the concentration for half-maximal inhibition (IC50) under setting [1] came out at 39 nM. Also, the inhibition at 0.2 µM under setting [2] came out at 99.1%.

As to `O=S(=O)(c1ccc(Br)cc1)N(CCC(F)(F)F)c1cc2ccccc2s1` [Compound 476, N-(Benzo[b]thiophen-2-yl)-4-(bromo)-N-(3,3,3-trifluoro-propyl)-benzenesulfonamide], the inhibition at 0.2 µM under setting [2] turned out to be 39%.

As for `Cc1c(N(Cc2ccc(F)c(C(F)(F)F)c2)S(=O)(=O)c2c(Cl)nc3sccn23)sc2ccccc12` [Compound 337], the IC50 under setting [1] amounted to 19 nM. Also, under setting [2], the “% Inh @ 0.2 (μM)” value is given as 101%.

As to `COC(=O)c1ccc(S(=O)(=O)N(CCCCC(F)(F)F)c2sc3ccccc3c2Cl)cc1` [Compound 531, N-(3-Chloro-benzo[b]thiophen-2-yl)-N-(5,5,5-trifluoro-pentyl)-4-carbomethoxy-benzenesulfonamide], under setting [1], the IC50 was found to be 46 nM. Further, under setting [2], the inhibition at 0.2 µM came to 88%.

Consider `Cc1c(N(Cc2ccc(F)c(C(F)(F)F)c2)S(=O)(=O)CCO)sc2ccccc12` [Compound 793, N-(4-Fluoro-3-trifluoromethyl-benzyl)-N-(3-methyl-benzo[b]thiophen-2-yl)-2-hydroxy-ethanesulfonamide], for which the IC50 under setting [1] turned out to be 15.5 nM. Further, the inhibition at 0.2 µM under setting [2] is 102%.

In the case of `Cc1c(N(CCC2CC2)S(=O)(=O)c2ccc(C3=NOS(=O)N3)cc2)sc2ccccc12` (stereo not drawn) [Compound 611, N-(3-Methyl-benzo[b]thiophen-2-yl)-N-(cyclopropyl-ethyl)-4-(3H-[1,2,3,5]oxathiadiazole-2-oxide)-benzenesulfonamide], the IC50 under setting [1] is 14.6 nM. Besides, the “% Inh @ 0.2 (μM)” value under setting [2] is reported as 101%.

`CCS(=O)(=O)N(Cc1ccc(F)c(C(F)(F)F)c1)c1sc2ccccc2c1CN1CCCC1` [Compound 349, N-(4-Fluoro-3-trifluoromethyl-benzyl)-N-(3-pyrrolidin-1-yl-methyl-benzo[b]thiophen-2-yl)-ethanesulfonamide]: the “% Inh @ 0.2 (μM)” value under setting [2] is 42%.

In the case of `CCCCN(c1sc2cc(F)ccc2c1C)S(=O)(=O)c1ccc(C(=O)O)cc1` [Compound 450, N-(6-Fluoro-3-methyl-benzo[b]thiophen-2-yl)-N-(butyl)-4-carboxy-benzenesulfonamide], the IC50 under setting [1] turned out to be 29 nM. In addition, the inhibition at 0.2 µM under setting [2] amounted to 101%.

Consider `Cc1c(N(CCC2CC2)S(=O)(=O)c2ccc(-c3noc(=O)[nH]3)nc2)sc2ccccc12` [Compound 807], for which the inhibition at 0.2 µM under setting [4] was 103%. Besides, the half-maximal inhibitory concentration (IC50) under setting [5] was 6 nM.

Consider `CS(=O)(=O)N(Cc1ccc(F)c(F)c1)c1sc2ccccc2c1Br` [Compound 151, N-(3-Bromo-benzo[b]thiophen-2-yl)-N-(3,4-difluoro-benzyl)-methanesulfonamide], for which, under setting [1], the 50% inhibitory concentration (IC50) amounted to 16.7 nM. Further, the inhibition at 0.5 µM under setting [3] came to 96%.

As to `CCCCN(c1sc2ccccc2c1Cl)S(=O)(=O)c1ccc(N2CCOCC2)cc1` [Compound 562, N-(3-Chloro-benzo[b]thiophen-2-yl)-N-(butyl)-4-morpholin-4-yl-benzenesulfonamide], the half-inhibitory concentration (IC50) under setting [1] came to 33.1 nM. Moreover, the inhibition at 0.2 µM under setting [2] was 103%.

Take `COc1ccc(S(=O)(=O)N(Cc2ccc(F)c(C(F)(F)F)c2)c2sc3ccccc3c2C)cc1F` [Compound 64, N-(4-Fluoro-3-trifluoromethyl-benzyl)-N-(3-methyl-benzo[b]thiophen-2-yl)-3-fluoro-4-methoxybenzenesulfonamide]: under setting [1], the IC50 stood at 19 nM. The inhibition at 0.2 µM under setting [2] was 96%.
